# Where two headings read alike, the source gives them in different places.
# Tests used:
# [1] = target: T1, F. trinervia PEPC (Flaveria trinervia, UniProt P30694); test: biochemical; type: biochemical
# T1 construct: the full-length ppcA gene of PEPC from F. trinervia (EMBL-Bank X61304); made in house; host or cells: Escherichia coli BL21(DE3)
# T1 sequence (P30694 1-966): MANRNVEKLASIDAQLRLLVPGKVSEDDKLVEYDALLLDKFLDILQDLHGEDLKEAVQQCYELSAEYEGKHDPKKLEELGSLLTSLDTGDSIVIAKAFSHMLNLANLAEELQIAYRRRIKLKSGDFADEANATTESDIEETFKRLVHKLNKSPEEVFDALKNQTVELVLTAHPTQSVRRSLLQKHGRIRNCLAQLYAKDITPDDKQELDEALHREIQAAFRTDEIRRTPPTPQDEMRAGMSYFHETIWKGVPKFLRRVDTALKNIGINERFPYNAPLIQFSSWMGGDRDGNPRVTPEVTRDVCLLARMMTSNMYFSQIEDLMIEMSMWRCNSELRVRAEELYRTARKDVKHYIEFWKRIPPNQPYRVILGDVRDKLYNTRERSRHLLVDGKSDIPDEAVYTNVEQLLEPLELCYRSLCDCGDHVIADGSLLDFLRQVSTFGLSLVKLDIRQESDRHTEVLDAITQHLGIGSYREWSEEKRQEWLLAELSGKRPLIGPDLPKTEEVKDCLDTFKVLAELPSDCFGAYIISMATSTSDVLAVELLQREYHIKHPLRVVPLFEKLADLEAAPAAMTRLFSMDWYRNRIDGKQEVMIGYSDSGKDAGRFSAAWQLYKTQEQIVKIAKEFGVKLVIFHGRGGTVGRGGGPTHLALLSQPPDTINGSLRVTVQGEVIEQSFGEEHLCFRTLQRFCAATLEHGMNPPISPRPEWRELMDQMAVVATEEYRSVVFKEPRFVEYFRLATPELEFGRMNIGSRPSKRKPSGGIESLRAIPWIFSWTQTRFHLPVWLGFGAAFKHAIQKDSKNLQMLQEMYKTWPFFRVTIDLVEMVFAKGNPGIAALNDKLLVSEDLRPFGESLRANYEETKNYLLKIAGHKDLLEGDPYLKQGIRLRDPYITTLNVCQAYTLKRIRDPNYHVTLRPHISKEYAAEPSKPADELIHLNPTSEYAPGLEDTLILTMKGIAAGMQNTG
# [2] = system: Pseudomonas putida KT2440; test: Bacterial growth in microscale cultivation, P. putida; type: cell-based; details: for activity at 0.1 µM / activity at 1 µM / activity at 10 µM / activity at 4 µM / activity at 40 µM / activity at 400 µM: Pseudomonas putida; for activity at 0.1 µM / activity at 1 µM / activity at 10 µM / Lag Phase / activity at 4 µM / activity at 40 µM / activity at 400 µM: relative to control
# Summary of the method: (§1)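 In a BioLector microscale system shaken at 1200 rpm, growth was tracked by backscatter at 620 nm, and final signal, growth rate (h⁻¹) and lag-phase length were scored against DMSO-only controls. Starting OD600 was 0.5, or 0.25 for B. subtilis. Inhibitors came from DMSO stocks, with trans-chalcone capped at 400 μM and 2'-hydroxychalcone at 100 μM.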
# [3] = system: Bacillus subtilis 168; test: Bacterial growth in microscale cultivation, B. subtilis; type: cell-based; details: for activity at 0.1 µM / activity at 1 µM / activity at 10 µM / Lag Phase / activity at 4 µM / activity at 40 µM / activity at 400 µM: relative to control; for Influence on bacterial growth: highest concentration tested (10× IC50) if not stated otherwise
# Summary of the method: as §1
smiles,measurement,setting,value
"O=C(/C=C/c1ccc(O)c(O)c1)c1ccc(O)c(O)c1O [Compound 12, 2′,3′,4′,3,4-Pentahydroxy-chalcone]",lower IC50 value in comparison to 8–11,[1]; C4 PEPC,~ 5 fold
same,IC50,"[1]; IC50 F. trinervia PEPC, C4 PEPC",0.6 ± 0.1 µM
same,activity at 0.1 µM,"[2]; KT2440, complex medium, 0.1 µM, read-out: Final Backscatter",97.8%
same,activity at 0.1 µM,"[2]; KT2440, complex medium, 0.1 µM, read-out: Growth rate",104%
same,activity at 1 µM,"[2]; KT2440, complex medium, 1 µM, read-out: Final Backscatter",98.2%
same,activity at 1 µM,"[2]; KT2440, complex medium, 1 µM, read-out: Growth rate",103%
same,activity at 10 µM,"[2]; KT2440, complex medium, 10 µM, read-out: Final Backscatter",98.6%
same,activity at 10 µM,"[2]; KT2440, complex medium, 10 µM, read-out: Growth rate",99.7%
same,activity at 0.1 µM,"[2]; KT2440, minimal medium, 0.1 µM, read-out: Final Backscatter",92.5%
same,activity at 0.1 µM,"[2]; KT2440, minimal medium, 0.1 µM, read-out: Growth rate",105%
same,activity at 1 µM,"[2]; KT2440, minimal medium, 1 µM, read-out: Final Backscatter",93.6%
same,activity at 1 µM,"[2]; KT2440, minimal medium, 1 µM, read-out: Growth rate",104%
same,activity at 10 µM,"[2]; KT2440, minimal medium, 10 µM, read-out: Final Backscatter",99.3%
same,activity at 10 µM,"[2]; KT2440, minimal medium, 10 µM, read-out: Growth rate",100%
same,Lag Phase,"[2]; complex medium, 0.1 µM","103,3%"
same,Lag Phase,"[2]; complex medium, 1 µM","103,9%"
same,Lag Phase,"[2]; complex medium, 10 µM","105,9%"
same,Lag Phase,"[2]; minimal medium, 0.1 µM","108,8%"
same,Lag Phase,"[2]; minimal medium, 1 µM","106,1%"
same,Lag Phase,"[2]; minimal medium, 10 µM","100,0%"
same,activity at 0.1 µM,"[3]; Bacillus subtilis, 168, complex medium, 0.1 µM, read-out: Final Backscatter",93.5%
same,activity at 0.1 µM,"[3]; Bacillus subtilis, 168, complex medium, 0.1 µM, read-out: Growth rate",96.7%
same,activity at 1 µM,"[3]; Bacillus subtilis, 168, complex medium, 1 µM, read-out: Final Backscatter",93.9%
same,activity at 1 µM,"[3]; Bacillus subtilis, 168, complex medium, 1 µM, read-out: Growth rate",104%
same,activity at 10 µM,"[3]; Bacillus subtilis, 168, complex medium, 10 µM, read-out: Final Backscatter",90.6%
same,activity at 10 µM,"[3]; Bacillus subtilis, 168, complex medium, 10 µM, read-out: Growth rate",109%
same,activity at 0.1 µM,"[3]; Bacillus subtilis, 168, minimal medium, 0.1 µM, read-out: Final Backscatter",102%
same,activity at 0.1 µM,"[3]; Bacillus subtilis, 168, minimal medium, 0.1 µM, read-out: Growth rate",123%
same,activity at 1 µM,"[3]; Bacillus subtilis, 168, minimal medium, 1 µM, read-out: Final Backscatter",98.6%
same,activity at 1 µM,"[3]; Bacillus subtilis, 168, minimal medium, 1 µM, read-out: Growth rate",113%
same,activity at 10 µM,"[3]; Bacillus subtilis, 168, minimal medium, 10 µM, read-out: Final Backscatter",104%
same,activity at 10 µM,"[3]; Bacillus subtilis, 168, minimal medium, 10 µM, read-out: Growth rate",115%
same,Lag Phase,"[3]; complex medium, 0.1 µM","110,6%"
same,Lag Phase,"[3]; complex medium, 1 µM","102,7%"
same,Lag Phase,"[3]; complex medium, 10 µM","94,7%"
same,Lag Phase,"[3]; minimal medium, 0.1 µM","98,2%"
same,Lag Phase,"[3]; minimal medium, 1 µM","100,6%"
same,Lag Phase,"[3]; minimal medium, 10 µM","100,0%"
"O=C(/C=C/c1ccccc1)c1ccc(O)cc1O [Compound 4, 2′,4′-Dihydroxychalcone]",Selectivity C4/C3,[1]; C4 PEPC over C3 isoform,2.1 fold
same,IC50,"[1]; C4 PEPC, read-out: IC50 F. trinervia PEPC",25.2 ± 1.3 µM
same,lag phase,[2]; 400 μM,slight increase in the lag phase
same,activity at 4 µM,"[2]; KT2440, complex medium, 4 µM, read-out: Final Backscatter",97.8%
same,activity at 4 µM,"[2]; KT2440, complex medium, 4 µM, read-out: Growth rate",101%
same,activity at 40 µM,"[2]; KT2440, complex medium, 40 µM, read-out: Final Backscatter",102%
same,activity at 40 µM,"[2]; KT2440, complex medium, 40 µM, read-out: Growth rate",100%
same,activity at 400 µM,"[2]; KT2440, complex medium, 400 µM, read-out: Final Backscatter",100%
same,activity at 400 µM,"[2]; KT2440, complex medium, 400 µM, read-out: Growth rate",101%
same,activity at 4 µM,"[2]; KT2440, minimal medium, 4 µM, read-out: Final Backscatter",102%
same,activity at 4 µM,"[2]; KT2440, minimal medium, 4 µM, read-out: Growth rate",94.1%
same,activity at 40 µM,"[2]; KT2440, minimal medium, 40 µM, read-out: Final Backscatter",102%
same,activity at 40 µM,"[2]; KT2440, minimal medium, 40 µM, read-out: Growth rate",98.3%
same,activity at 400 µM,"[2]; KT2440, minimal medium, 400 µM, read-out: Final Backscatter",107%
same,activity at 400 µM,"[2]; KT2440, minimal medium, 400 µM, read-out: Growth rate",93.9%
same,Lag Phase,"[2]; complex medium, 4 µM","105,0%"
same,Lag Phase,"[2]; complex medium, 40 µM","106,6%"
same,Lag Phase,"[2]; complex medium, 400 µM","123,2%"
same,Lag Phase,"[2]; minimal medium, 4 µM","108,7%"
same,Lag Phase,"[2]; minimal medium, 40 µM","108,3%"
same,Lag Phase,"[2]; minimal medium, 400 µM","97,7%"
same,activity at 4 µM,"[3]; Bacillus subtilis, 168, complex medium, 4 µM, read-out: Final Backscatter",92.2%
same,activity at 4 µM,"[3]; Bacillus subtilis, 168, complex medium, 4 µM, read-out: Growth rate",128%
same,activity at 40 µM,"[3]; Bacillus subtilis, 168, complex medium, 40 µM, read-out: Final Backscatter",94.3%
same,activity at 40 µM,"[3]; Bacillus subtilis, 168, complex medium, 40 µM, read-out: Growth rate",97.4%
same,activity at 400 µM,"[3]; Bacillus subtilis, 168, complex medium, 400 µM, read-out: Final Backscatter",81.5%
same,activity at 400 µM,"[3]; Bacillus subtilis, 168, complex medium, 400 µM, read-out: Growth rate",92.7%
same,activity at 4 µM,"[3]; Bacillus subtilis, 168, minimal medium, 4 µM, read-out: Final Backscatter",96.6%
same,activity at 4 µM,"[3]; Bacillus subtilis, 168, minimal medium, 4 µM, read-out: Growth rate",91.5%
same,activity at 40 µM,"[3]; Bacillus subtilis, 168, minimal medium, 40 µM, read-out: Final Backscatter",95.7%
same,activity at 40 µM,"[3]; Bacillus subtilis, 168, minimal medium, 40 µM, read-out: Growth rate",108%
same,activity at 400 µM,"[3]; Bacillus subtilis, 168, minimal medium, 400 µM, read-out: Final Backscatter",77.3%
same,activity at 400 µM,"[3]; Bacillus subtilis, 168, minimal medium, 400 µM, read-out: Growth rate",75.2%
same,Influence on bacterial growth,[3]; Complex medium,fbs↓ lag↑
same,Influence on bacterial growth,[3]; Minimal medium,"fbs↓, lag↑"
same,Lag Phase,"[3]; complex medium, 4 µM","107,7%"
same,Lag Phase,"[3]; complex medium, 40 µM","107,7%"
same,Lag Phase,"[3]; complex medium, 400 µM","166,5%"
same,Lag Phase,"[3]; minimal medium, 4 µM","97,7%"
same,Lag Phase,"[3]; minimal medium, 40 µM","100,0%"
same,Lag Phase,"[3]; minimal medium, 400 µM","129,1%"

# — publication PMC4893628, “Chalcone-based Selective Inhibitors of a C4 Plant Key Enzyme as Novel Potential Herbicides” (Scientific Reports, 2016)
